# Test results taken from patent US6949542B2, “Dihydro-benzo[b][1,4]diazepin-2-one derivatives” (Hoffman-La Roche Inc., priority 2002, dated 2005).
row,Structure (SMILES),melting point [°C]
1,"Cc1cc(-c2cccc(C3=Nc4cc(Cl)c(Cl)cc4NC(=O)C3)c2)c(C)cn1 [Example 137, 7,8-Dichloro-4-[3-(2,5-dimethyl-pyridin-4-yl)-phenyl]-1,3-dihydro-benzo[b][1,4]diazepin-2-one]",208
2,"O=C1CC(c2cccc(-c3cccnc3)c2)=Nc2ccc(-c3ccccc3F)cc2N1 [Example 29, 8-(2-Fluoro-phenyl)-4-(3-pyridin-3-yl-phenyl)-1,3-dihydro-benzo[b][1,4]diazepin-2-one]",208 to 209
3,"CCOc1cc2c(cc1C(F)(F)F)NC(=O)CC(c1cccc(-c3cccnc3C3CC3)c1)=N2 [Example 227, 4-[3-(2-Cyclopropyl-pyridin-3-yl)-phenyl]-7-ethoxy-8-trifluoromethyl-1,3-dihydro-benzo[b][1,4]diazepin-2-one]",187 to 188
4,"Cc1cc2c(cc1C(F)(F)F)NC(=O)CC(c1cccc(-c3ccnnc3)c1)=N2 [Example 49, 7-Methyl-4-(3-pyridazin-4-yl-phenyl)-8-trifluoromethyl-1,3-dihydro-benzo[b][1,4]diazepin-2-one]",223
5,"O=C1CC(c2cccc(-c3cncnc3)c2)=Nc2ccc(Cl)cc2N1 [Example 94, 8-Chloro-4-(3-pyrimidin-5-yl-phenyl)-1,3-dihydro-benzo[b][1,4]diazepin-2-one]",234
6,"C=Cc1cc2c(cc1C(F)(F)F)NC(=O)CC(c1cccc(-c3cccnc3)c1)=N2 [Example 214, 4-(3-Pyridin-3-yl-phenyl)-8-trifluoromethyl-7-vinyl-1,3-dihydro-benzo[b][1,4]diazepin-2-one]",208 to 209
7,"CC(C)c1ccc(-c2cccc(C3=Nc4ccc(C(F)(F)F)cc4NC(=O)C3)c2)cn1 [Example 177, 4-[3-(6-Isopropyl-pyridin-3-yl)-phenyl]-8-trifluoromethyl-1,3-dihydro-benzo[b][1,4]diazepin-2-one]",194
8,"Cc1nccc(-c2cccc(C3=Nc4ccc(C(F)(F)F)cc4NC(=O)C3)c2)c1C [Example 142, 4-[3-(2,3-Dimethyl-pyridin-4-yl)-phenyl]-8-trifluoromethyl-1,3-dihydro benzo[b][1,4]diazepin-2-one]",200
9,"Cc1cc2c(cc1C(F)(F)F)NC(=O)CC(c1cccc(-c3ccnc(C#N)c3)c1)=N2 [Example 199, 4-[3-(8-Methyl-4-oxo-7-trifluoromethyl-4,5-dihydro-3H-benzo[b][1,4]diazepin-2-yl)-phenyl]-pyridine-2-carbonitrile]",205 to 211
10,"O=C1CC(c2cccc(-c3cccnc3)c2)=Nc2ccc(C#Cc3ccccc3)cc2N1 [Example 175, 8-Phenylethynyl-4-(3-pyridin-3-yl-phenyl)-1,3-dihydro-benzo[b][1,4]diazepin-2-one]",241
11,"Cc1cc2c(cc1C(F)(F)F)NC(=O)CC(c1cccc(-c3ccc(C(C)C)nc3)c1)=N2 [Example 180, 4-[3-(6-Isopropyl-pyridin-3-yl)-phenyl]-7-methyl-8-trifluoromethyl-1,3-dihydro-benzo[b][1,4]diazepin-2-one]",199
12,"Cc1cc(-c2cccc(C3=Nc4cc(F)c(F)cc4NC(=O)C3)c2)ccn1 [Example 115, 7,8-Difluoro-4-[3-(2-methyl-pyridin-4-yl)-phenyl]-1,3-dihydro-benzo[b][1,4]diazepin-2-one]",217
13,"O=C1CC(c2cccc(-c3cccnc3)c2)=Nc2ccc(F)cc2N1 [Example 7, 8-Fluoro-4-(3-pyridin-3-yl-phenyl)-1,3-dihydro-benzo[b][1,4]diazepin-2-one]",210
14,"Cc1cc2c(cc1C(F)(F)F)NC(=O)CC(c1cccc(-c3ccc(N(C)C)nc3)c1)=N2 [Example 217, 4-[3-(6-Dimethylamino-pyridin-3-yl)-phenyl]-7-methyl-8-trifluoromethyl-1,3-dihydro-benzo[b][1,4]diazepin-2-one]",231 to 233
15,"O=C1CC(c2cccc(-c3cnccn3)c2)=Nc2cc(Cl)c(C(F)(F)F)cc2N1 [Example 91, 7-Chloro-4-(3-pyrazin-2-yl-phenyl)-8-trifluoromethyl-1,3-dihydro-benzo[b][1,4]diazepin-2-one]",235
16,"Cc1cc(-c2cccc(C3=Nc4cc(Cl)c(C(F)(F)F)cc4NC(=O)C3)c2)c(C)cn1 [Example 136, 7-Chloro-4-[3-(2,5-dimethyl-pyridin-4-yl)-phenyl]-8-trifluoromethyl-1,3-dihydro benzo[b][1,4]diazepin-2-one]",214
17,"CN(c1cc2c(cc1C(F)(F)F)NC(=O)CC(c1cccc(-c3cccnc3)c1)=N2)C1CC1 [Example 62, 7-(Cyclopropyl-methyl-amino)-4-(3-pyridin-3-yl-phenyl)-8-trifluoromethyl-1,3-dihydro-benzo[b][1,4]diazepin-2-one]",196 to 198
18,"Cc1ccc(-c2cccc(C3=Nc4cc(F)c(Cl)cc4NC(=O)C3)c2)cn1 [Example 23, 8-Chloro-7-fluoro-4-[3-(6-methyl-pyridin-3-yl)-phenyl]-1,3-dihydro-benzo[b][1,4]diazepin-2-one]",215 to 220
19,"Cc1cc(-c2cccc(C3=Nc4cc(F)c(C(F)(F)F)cc4NC(=O)C3)c2)cc(C)n1 [Example 240, 4-[3-(2,6-Dimethyl-pyridin-4-yl)-phenyl]-7-fluoro-8-trifluoromethyl-1,3-dihydro-benzo[b][1,4]diazepin-2-one]",251 to 252

# Continued, values first:
row,melting point [°C],Structure (SMILES)
1,230 to 232,"Cc1nccc(-c2cccc(C3=Nc4cc(C)c(C(F)(F)F)cc4NC(=O)C3)c2)n1 [Example 301, 7-Methyl-4-[3-(2-methyl-pyrimidin-4-yl)-phenyl]-8-trifluoromethyl-1,3-dihydro-benzo[b][1,4]diazepin-2-one]"
2,225 to 226,"C=Cc1cc2c(cc1C(F)(F)F)NC(=O)CC(c1cccc(-c3cc(C)nc(C)c3)c1)=N2 [Example 241, 4-[3-(2,6-Dimethyl-pyridin-4-yl)-phenyl]-8-trifluoromethyl-7-vinyl-1,3-dihydro-benzo[b][1,4]diazepin-2-one]"
3,198,"Cc1cc2c(cc1Cl)NC(=O)CC(c1cccc(-c3ccnc(CC(C)C)c3)c1)=N2 [Example 277, 8-Chloro-4-[3-(2-isobutyl-pyridin-4-yl)-phenyl]-7-methyl-1,3-dihydro-benzo[b][1,4]diazepin-2-one]"
4,223,"Cc1cc(-c2cccc(C3=Nc4cc(N5CCCC5)c(C(F)(F)F)cc4NC(=O)C3)c2)ccn1 [Example 365, 4-[3-(2-Methyl-pyridin-4-yl)-phenyl]-7-pyrrolidin-1-yl-8-trifluoromethyl-1,3-dihydro-benzo[b][1,4]diazepin-2-one]"
5,155,"CCCN(C)Cc1cc(-c2cccc(C3=Nc4cc(OCC(F)(F)F)c(C(F)(F)F)cc4NC(=O)C3)c2)ccn1 [Example 382, 4-(3-{2-[(Methyl-propyl-amino)-methyl]-pyridin-4-yl}-phenyl)-7-(2,2,2-trifluoro-ethoxy)-8-trifluoromethyl-1,3-dihydro-benzo[b][1,4]diazepin-2-one]"
6,209 to 212,"Cc1nccc(-c2cccc(C3=Nc4ccc(-n5cccc5)cc4NC(=O)C3)c2)n1 [Example 307, 4-[3-(2-Methyl-pyrimidin-4-yl)-phenyl]-8-pyrrol-1-yl-1,3-dihydro-benzo[b][1,4]diazepin-2-one]"
7,201,"O=C1CC(c2cccc(-c3ccnc(CO)c3)c2)=Nc2cc(OCC(F)(F)F)c(C(F)(F)F)cc2N1 [Example 286, 4-[3-(2-Hydroxymethyl-pyridin-4-yl)-phenyl]-7-(2,2,2-trifluoro-ethoxy)-8-trifluoromethyl-1,3-dihydro-benzo[b][1,4]diazepin-2-one]"
8,240 to 243,"CNc1cc(-c2cccc(C3=Nc4cc(C)c(Cl)cc4NC(=O)C3)c2)ncn1 [Example 331, 8-Chloro-7-methyl-4-[3-(6-methylamino-pyrimidin-4-yl)-phenyl]-1,3-dihydro-benzo[b][1,4]diazepin-2-one]"
9,210,"O=C1CC(c2cccc(-c3cccnc3)c2)=Nc2cc(C(F)(F)F)c(C(F)(F)F)cc2N1 [Example 416, 4-(3-Pyridin-3-yl-phenyl)-7,8-bis-trifluoromethyl-1,3-dihydro-benzo[b][1,4]diazepin-2-one]"
10,233 to 236,"Cc1nnc(-c2cccc(C3=Nc4cc(N(C)C)c(C(F)(F)F)cc4NC(=O)C3)c2)nc1C [Example 343, 7-Dimethylamino-4-[3-(5,6-dimethyl-[1,2,4]triazin-3-yl)-phenyl]-8-trifluoromethyl-1,3-dihydro-benzo[b][1,4]diazepin-2-one]"
11,218 to 219,"Cc1cc(C)c(-c2cccc(C3=Nc4cc(C)c(C(F)(F)F)cc4NC(=O)C3)c2)cn1 [Example 245, 4-[3-(4,6-Dimethyl-pyridin-3-yl)-phenyl]-7-methyl-8-trifluoromethyl-1,3-dihydro-benzo[b][1,4]diazepin-2-one]"
12,223 to 227,"Cc1cc2c(cc1Cl)NC(=O)CC(c1cccc(-c3ncccn3)c1)=N2 [Example 335, 8-Chloro-7-methyl-4-(3-pyrimidin-2-yl-phenyl)-1,3-dihydro-benzo[b][1,4]diazepin-2-one]"
13,228 to 233,"Cc1cc2c(cc1Cl)NC(=O)CC(c1cccc(-c3cc(N)ncn3)c1)=N2 [Example 329, 4-[3-(6-Amino-pyrimidin-4-yl)-phenyl]-8-chloro-7-methyl-1,3-dihydro-benzo[b][1,4]diazepin-2-one]"
14,226,"O=C1CC(c2cccc(-c3ccnc(C(F)(F)F)c3)c2)=Nc2cc(Cl)c(Cl)cc2N1 [Example 267, 7,8-Dichloro-4-[3-(2-trifluoromethyl-pyridin-4-yl)-phenyl]-1,3-dihydro-benzo[b][1,4]diazepin-2-one]"
15,224,"O=C1CC(c2cccc(-c3ccnc(N4CCCC4)c3)c2)=Nc2ccc(C(F)(F)F)cc2N1 [Example 388, 4-[3-(2-Pyrrolidin-1-yl-pyridin-4-yl)-phenyl]-8-trifluoromethyl-1,3-dihydro-benzo[b][1,4]diazepin-2-one]"
16,224 to 226,"Cc1cc2c(cc1C(F)(F)F)NC(=O)CC(c1ccnc(-c3ccncc3)c1)=N2 [Example 292, 4-[2,4′]Bipyridinyl-4-yl-7-methyl-8-trifluoromethyl-1,3-dihydro-benzo[b][1,4]diazepin-2-one]"
